Measurements: patent US20230073777A1, “CYCLIC-AMP RESPONSE ELEMENT BINDING PROTEIN (CBP) AND/OR ADENOVIRAL E1A BINDING PROTEIN OF 300 KDA (P300) DEGRADATION COMPOUNDS AND METHODS OF USE” (CULLGEN (SHANGHAI), INC., priority 2019, published 2023)
Like-named read-outs stand apart in the source and are kept apart here.

Columns and labels:
[1] = system: LNCaP cells; assay: LNCaP cell viability assay (CellTiter-Glo); format: cell-based; details: Homo sapiens, 72 h, LNCaP prostate cancer cell viability inhibition, 3 days
Procedure, shortened: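 LNCaP cells, 5000/well, exposed to compounds in 12-point 3-fold serial dilution (top 10 μM) for 3 days. Viability by CellTiter-Glo luminescence, normalized to untreated cells; IC50 by least-squares nonlinear regression.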

[2] = target: P300 (Homo sapiens, UniProt Q09472); assay: Immunoblotting of P300 protein levels in LNCaP or 22RV1 cells; format: cell-based; parameters: LNCaP or 22RV1 cells that express CBP/P300 proteins were treated with GNE-781 or the bivalent compounds; endogenous in cells; host or cells: LNCaP (clone FGC) or 22RV1 cells; details: read-out: Degradation (10 nM)
Sequence of P300 (Q09472 whole entry): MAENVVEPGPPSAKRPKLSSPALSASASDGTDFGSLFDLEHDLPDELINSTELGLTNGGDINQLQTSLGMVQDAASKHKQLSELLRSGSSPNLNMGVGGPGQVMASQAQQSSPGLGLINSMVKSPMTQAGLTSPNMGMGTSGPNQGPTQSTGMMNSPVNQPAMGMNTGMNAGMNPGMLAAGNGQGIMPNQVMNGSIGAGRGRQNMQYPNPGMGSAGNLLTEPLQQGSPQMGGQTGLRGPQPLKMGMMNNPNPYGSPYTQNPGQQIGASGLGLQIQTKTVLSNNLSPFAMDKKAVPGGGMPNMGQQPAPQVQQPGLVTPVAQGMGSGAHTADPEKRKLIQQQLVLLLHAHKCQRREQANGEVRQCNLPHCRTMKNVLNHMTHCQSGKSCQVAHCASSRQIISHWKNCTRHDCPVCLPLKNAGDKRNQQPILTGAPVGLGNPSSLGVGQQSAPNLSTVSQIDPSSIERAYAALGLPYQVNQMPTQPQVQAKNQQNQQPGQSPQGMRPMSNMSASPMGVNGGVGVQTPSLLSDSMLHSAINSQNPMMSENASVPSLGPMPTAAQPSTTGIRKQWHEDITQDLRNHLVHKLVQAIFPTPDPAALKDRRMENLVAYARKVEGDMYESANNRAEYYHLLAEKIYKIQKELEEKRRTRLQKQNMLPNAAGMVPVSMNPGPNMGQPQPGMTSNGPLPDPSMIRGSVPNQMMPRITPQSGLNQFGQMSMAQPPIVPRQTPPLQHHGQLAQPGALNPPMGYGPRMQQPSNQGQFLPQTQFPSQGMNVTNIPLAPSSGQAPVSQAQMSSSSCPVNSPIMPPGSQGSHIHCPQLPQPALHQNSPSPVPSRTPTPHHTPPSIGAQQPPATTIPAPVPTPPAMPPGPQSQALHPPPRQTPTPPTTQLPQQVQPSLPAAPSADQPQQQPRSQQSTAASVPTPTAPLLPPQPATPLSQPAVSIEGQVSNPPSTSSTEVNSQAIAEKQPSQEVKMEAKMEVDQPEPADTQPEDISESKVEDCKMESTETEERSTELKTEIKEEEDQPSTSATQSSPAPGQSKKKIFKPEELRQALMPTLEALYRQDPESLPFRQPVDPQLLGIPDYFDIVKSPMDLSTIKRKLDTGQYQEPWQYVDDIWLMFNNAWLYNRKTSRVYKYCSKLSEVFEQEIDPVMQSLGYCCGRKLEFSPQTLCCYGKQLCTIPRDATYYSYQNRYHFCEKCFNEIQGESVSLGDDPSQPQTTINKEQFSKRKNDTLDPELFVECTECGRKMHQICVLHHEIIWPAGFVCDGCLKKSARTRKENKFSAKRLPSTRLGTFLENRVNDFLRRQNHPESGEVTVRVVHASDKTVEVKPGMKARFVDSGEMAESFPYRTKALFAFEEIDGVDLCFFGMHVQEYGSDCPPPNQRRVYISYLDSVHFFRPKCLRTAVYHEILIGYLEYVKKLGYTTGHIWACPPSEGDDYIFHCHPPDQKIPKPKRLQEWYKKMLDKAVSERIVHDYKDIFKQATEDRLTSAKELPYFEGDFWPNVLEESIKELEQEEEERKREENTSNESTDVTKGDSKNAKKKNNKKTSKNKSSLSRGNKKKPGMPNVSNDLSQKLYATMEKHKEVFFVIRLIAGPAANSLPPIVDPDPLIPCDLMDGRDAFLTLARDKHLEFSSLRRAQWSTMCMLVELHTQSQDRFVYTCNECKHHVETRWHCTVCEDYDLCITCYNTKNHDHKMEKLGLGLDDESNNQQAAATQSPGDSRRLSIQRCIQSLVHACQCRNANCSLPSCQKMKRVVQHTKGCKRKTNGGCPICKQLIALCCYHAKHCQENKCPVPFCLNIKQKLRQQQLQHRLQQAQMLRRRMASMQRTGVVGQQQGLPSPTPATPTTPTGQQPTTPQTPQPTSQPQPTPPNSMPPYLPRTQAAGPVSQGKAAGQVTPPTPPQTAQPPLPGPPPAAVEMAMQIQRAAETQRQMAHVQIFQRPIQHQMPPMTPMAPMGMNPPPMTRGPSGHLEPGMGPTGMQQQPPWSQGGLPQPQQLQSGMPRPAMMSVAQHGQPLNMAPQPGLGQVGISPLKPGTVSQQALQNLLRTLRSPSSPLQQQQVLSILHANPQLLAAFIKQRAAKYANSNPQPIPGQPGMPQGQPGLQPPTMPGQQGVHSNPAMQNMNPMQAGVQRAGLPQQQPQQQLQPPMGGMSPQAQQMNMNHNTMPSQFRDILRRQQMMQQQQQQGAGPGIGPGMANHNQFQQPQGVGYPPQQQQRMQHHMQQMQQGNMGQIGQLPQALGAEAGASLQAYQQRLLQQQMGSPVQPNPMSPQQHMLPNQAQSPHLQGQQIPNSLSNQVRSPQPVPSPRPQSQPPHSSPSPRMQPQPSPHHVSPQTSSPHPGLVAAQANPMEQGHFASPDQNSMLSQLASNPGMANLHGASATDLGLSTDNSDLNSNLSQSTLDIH
Procedure, shortened: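 LNCaP or 22RV1 cells treated with compounds for indicated hours, DMSO as negative control. RIPA lysates resolved by SDS-PAGE and immunoblotted for P300 or CBP, tubulin or vinculin as loading control; chemiluminescent bands quantitated.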

[3] = percentage of inhibition of p300 at 10 nM (Table 2)
[4] = percentage of inhibition of p300 at 10 nM (Table 3)

Row | IC50 ([1]; CellTiter-Glo (Table 2)) [nM] | inhibition at 0.01 µM [2, 3] [%] | IC50 ([1]; CellTiter-Glo (Table 3)) [nM] | inhibition at 0.01 µM [2, 4] [%] | Structure (SMILES)
1 | 2560 | < 20 | – | – | CNC(=O)N1CCc2c(c(N3CCCc4cc(-c5cnn(CC(=O)NCCCCCC(=O)N[C@H](C(=O)N6C[C@H](O)C[C@H]6C(=O)NCc6ccc(-c7scnc7C)cc6)C(C)(C)C)c5)c(C(F)F)cc43)nn2C2CCOCC2)C1 [P-047, 3-(7-(Difluoromethyl)-6-(1-(2-((6-(((S)-1-((2S,4R)-4-hydroxy-2-((4-(4-methylthiazol-5-yl)benzyl)carbamoyl)pyrrolidin-1-yl)-3,3-dimethyl-1-oxobutan-2-yl)amino)-6-oxohexyl)amino)-2-oxoethyl)-1H-pyrazol-4-yl)-3,4-dihydroquinolin-1(2H)-yl)-N-methyl-1-(tetrahydro-2H-pyran-4-yl)-1,4,6,7-tetrahydro-5H-pyrazolo[4,3-c]pyridine-5-carboxamide]
2 | 471 | < 20 | – | – | CNC(=O)N1CCc2c(c(N3CCCc4cc(-c5cnn(CC(=O)NCCCCCCCC(=O)N[C@H](C(=O)N6C[C@H](O)C[C@H]6C(=O)NCc6ccc(-c7scnc7C)cc6)C(C)(C)C)c5)c(C(F)F)cc43)nn2C2CCOCC2)C1 [P-048, 3-(7-(Difluoromethyl)-6-(1-(2-((8-(((S)-1-((2S,4R)-4-hydroxy-2-((4-(4-methylthiazol-5-yl)benzyl)carbamoyl)pyrrolidin-1-yl)-3,3-dimethyl-1-oxobutan-2-yl)amino)-8-oxooctyl)amino)-2-oxoethyl)-1H-pyrazol-4-yl)-3,4-dihydroquinolin-1(2H)-yl)-N-methyl-1-(tetrahydro-2H-pyran-4-yl)-1,4,6,7-tetrahydro-5H-pyrazolo[4,3-c]pyridine-5-carboxamide]
3 | 111 | 20 to 50 | – | – | CNC(=O)N1CCc2c(c(N3CCCc4cc(-c5cnn(CC(=O)NCCCCCCCCCCC(=O)N[C@H](C(=O)N6C[C@H](O)C[C@H]6C(=O)NCc6ccc(-c7scnc7C)cc6)C(C)(C)C)c5)c(C(F)F)cc43)nn2C2CCOCC2)C1 [P-050, 3-(7-(Difluoromethyl)-6-(1-(2-((11-(((S)-1-((2S,4R)-4-hydroxy-2-((4-(4-methylthiazol-5-yl)benzyl)carbamoyl)pyrrolidin-1-yl)-3,3-dimethyl-1-oxobutan-2-yl)amino)-11-oxoundecyl)amino)-2-oxoethyl)-1H-pyrazol-4-yl)-3,4-dihydroquinolin-1(2H)-yl)-N-methyl-1-(tetrahydro-2H-pyran-4-yl)-1,4,6,7-tetrahydro-5H-pyrazolo[4,3-c]pyridine-5-carboxamide]
4 | – | – | 27.5 | < 20 | CNC(=O)N1CCc2c(c(N3CCCc4cc(-c5cnn(C)c5)c(C(F)F)cc43)nn2C2CCN(C(=O)CCOCCNc3cccc4c3C(=O)N(C3CCC(=O)NC3=O)C4=O)CC2)C1 (stereo not drawn) [P-051, 3-(7-(Difluoromethyl)-6-(1-methyl-1H-pyrazol-4-yl)-3,4-dihydroquinolin-1(2H)-yl)-1-(1-(3-(2-((2-(2,6-dioxopiperidin-3-yl)-1,3-dioxoisoindolin-4-yl)amino)ethoxy)propanoyl)piperidin-4-yl)-N-methyl-1,4,6,7-tetrahydro-5H-pyrazolo[4,3-c]pyridine-5-carboxamide]
5 | – | – | 105 | < 20 | CNC(=O)N1CCc2c(c(N3CCCc4cc(-c5cnn(C)c5)c(C(F)F)cc43)nn2C2CCN(C(=O)CCOCCOCCNc3cccc4c3C(=O)N(C3CCC(=O)NC3=O)C4=O)CC2)C1 (stereo not drawn) [P-052, 3-(7-(Difluoromethyl)-6-(1-methyl-1H-pyrazol-4-yl)-3,4-dihydroquinolin-1(2H)-yl)-1-(1-(3-(2-(2-((2-(2,6-dioxopiperidin-3-yl)-1,3-dioxoisoindolin-4-yl)amino)ethoxy)ethoxy)propanoyl)piperidin-4-yl)-N-methyl-1,4,6,7-tetrahydro-5H-pyrazolo[4,3-c]pyridine-5-carboxamide]
6 | – | – | 76.5 | 20 to 50 | CNC(=O)N1CCc2c(c(N3CCCc4cc(-c5cnn(C)c5)c(C(F)F)cc43)nn2C2CCN(C(=O)CCOCCOCCOCCNc3cccc4c3C(=O)N(C3CCC(=O)NC3=O)C4=O)CC2)C1 (stereo not drawn) [P-053, 3-(7-(Difluoromethyl)-6-(1-methyl-1H-pyrazol-4-yl)-3,4-dihydroquinolin-1(2H)-yl)-1-(1-(3-(2-(2-(2-((2-(2,6-dioxopiperidin-3-yl)-1,3-dioxoisoindolin-4-yl)amino)ethoxy)ethoxy)ethoxy)propanoyl)piperidin-4-yl)-N-methyl-1,4,6,7-tetrahydro-5H-pyrazolo[4,3-c]pyridine-5-carboxamide]
7 | – | – | 122 | < 20 | CNC(=O)N1CCc2c(c(N3CCCc4cc(-c5cnn(C)c5)c(C(F)F)cc43)nn2C2CCN(C(=O)CCOCCOCCOCCOCCNc3cccc4c3C(=O)N(C3CCC(=O)NC3=O)C4=O)CC2)C1 (stereo not drawn) [P-054, 3-(7-(Difluoromethyl)-6-(1-methyl-1H-pyrazol-4-yl)-3,4-dihydroquinolin-1(2H)-yl)-1-(1-(1-((2-(2,6-dioxopiperidin-3-yl)-1,3-dioxoisoindolin-4-yl)amino)-3,6,9,12-tetraoxapentadecan-15-oyl)piperidin-4-yl)-N-methyl-1,4,6,7-tetrahydro-5H-pyrazolo[4,3-c]pyridine-5-carboxamide]
8 | – | – | 161 | < 20 | CNC(=O)N1CCc2c(c(N3CCCc4cc(-c5cnn(C)c5)c(C(F)F)cc43)nn2C2CCN(C(=O)CCOCCOCCOCCOCCOCCNc3cccc4c3C(=O)N(C3CCC(=O)NC3=O)C4=O)CC2)C1 (stereo not drawn) [P-055, 3-(7-(Difluoromethyl)-6-(1-methyl-1H-pyrazol-4-yl)-3,4-dihydroquinolin-1(2H)-yl)-1-(1-(1-((2-(2,6-dioxopiperidin-3-yl)-1,3-dioxoisoindolin-4-yl)amino)-3,6,9,12,15-pentaoxaoctadecan-18-oyl)piperidin-4-yl)-N-methyl-1,4,6,7-tetrahydro-5H-pyrazolo[4,3-c]pyridine-5-carboxamide]
9 | – | – | 75.6 | < 20 | CNC(=O)N1CCc2c(c(N3CCCc4cc(-c5cnn(C)c5)c(C(F)F)cc43)nn2C2CCN(C(=O)CCC(=O)N[C@H](C(=O)N3C[C@H](O)C[C@H]3C(=O)NCc3ccc(-c4scnc4C)cc3)C(C)(C)C)CC2)C1 [P-056, 3-(7-(Difluoromethyl)-6-(1-methyl-1H-pyrazol-4-yl)-3,4-dihydroquinolin-1(2H)-yl)-1-(1-(4-(((S)-1-((2S,4R)-4-hydroxy-2-((4-(4-methylthiazol-5-yl)benzyl)carbamoyl)pyrrolidin-1-yl)-3,3-dimethyl-1-oxobutan-2-yl)amino)-4-oxobutanoyl)piperidin-4-yl)-N-methyl-1,4,6,7-tetrahydro-5H-pyrazolo[4,3-c]pyridine-5-carboxamide]
10 | – | – | 76.6 | < 20 | CNC(=O)N1CCc2c(c(N3CCCc4cc(-c5cnn(C)c5)c(C(F)F)cc43)nn2C2CCN(C(=O)CCCC(=O)N[C@H](C(=O)N3C[C@H](O)C[C@H]3C(=O)NCc3ccc(-c4scnc4C)cc3)C(C)(C)C)CC2)C1 [P-057, 3-(7-(Difluoromethyl)-6-(1-methyl-1H-pyrazol-4-yl)-3,4-dihydroquinolin-1(2H)-yl)-1-(1-(5-(((S)-1-((2S,4R)-4-hydroxy-2-((4-(4-methylthiazol-5-yl)benzyl)carbamoyl)pyrrolidin-1-yl)-3,3-dimethyl-1-oxobutan-2-yl)amino)-5-oxopentanoyl)piperidin-4-yl)-N-methyl-1,4,6,7-tetrahydro-5H-pyrazolo[4,3-c]pyridine-5-carboxamide]
11 | – | – | 67.8 | < 20 | CNC(=O)N1CCc2c(c(N3CCCc4cc(-c5cnn(C)c5)c(C(F)F)cc43)nn2C2CCN(C(=O)CCCCC(=O)N[C@H](C(=O)N3C[C@H](O)C[C@H]3C(=O)NCc3ccc(-c4scnc4C)cc3)C(C)(C)C)CC2)C1 [P-058, 3-(7-(Difluoromethyl)-6-(1-methyl-1H-pyrazol-4-yl)-3,4-dihydroquinolin-1(2H)-yl)-1-(1-(6-(((S)-1-((2S,4R)-4-hydroxy-2-((4-(4-methylthiazol-5-yl)benzyl)carbamoyl)pyrrolidin-1-yl)-3,3-dimethyl-1-oxobutan-2-yl)amino)-6-oxohexanoyl)piperidin-4-yl)-N-methyl-1,4,6,7-tetrahydro-5H-pyrazolo[4,3-c]pyridine-5-carboxamide]
12 | – | – | 60.6 | < 20 | CNC(=O)N1CCc2c(c(N3CCCc4cc(-c5cnn(C)c5)c(C(F)F)cc43)nn2C2CCN(C(=O)CCCCCC(=O)N[C@H](C(=O)N3C[C@H](O)C[C@H]3C(=O)NCc3ccc(-c4scnc4C)cc3)C(C)(C)C)CC2)C1 [P-059, 3-(7-(Difluoromethyl)-6-(1-methyl-1H-pyrazol-4-yl)-3,4-dihydroquinolin-1(2H)-yl)-1-(1-(7-(((S)-1-((2S,4R)-4-hydroxy-2-((4-(4-methylthiazol-5-yl)benzyl)carbamoyl)pyrrolidin-1-yl)-3,3-dimethyl-1-oxobutan-2-yl)amino)-7-oxoheptanoyl)piperidin-4-yl)-N-methyl-1,4,6,7-tetrahydro-5H-pyrazolo[4,3-c]pyridine-5-carboxamide]
